Measured values taken from US20240247080A1, “GLP1/GIP/NPY2 RECEPTOR TRIPLE AGONISTS” (Boehringer Ingelheim International GmbH, priority 2022, published 2024).
pEC50: −log10 of the molar value. Read-outs that look alike come from different tables or passages of the source. Starred links: 1 amine or outer side, 2 acyl side, 3 side chain; linkers in the order of their positions; H or OH if unused. Positions of bridges follow the written chain, without caps; N, C: chain ends. Non-standard residues stand in square brackets, D forms with d. Groups on a side chain read outwards from the residue. Chains are numbered I, II in the order given. No end group written: not given here. *: point of attachment. C20 diacid = O=C(O)CCCCCCCCCCCCCCCCCCC(=O)*; C18 diacid = O=C(O)CCCCCCCCCCCCCCCCC(=O)*; γGlu = O=C(O)[C@H](CCC(=O)[*:2])N[*:1]; εLys = N[C@@H](CCCCN[*:1])C(=O)[*:2]; Tle = CC(C)(C)[C@H](N)C(=O)O; AEEA = NCCOCCOCC(=O)O; Aib = CC(C)(N)C(=O)O

Columns and labels:
hGLP1R = target: T1, hGLP1R (Homo sapiens, UniProt P43220); experiment: hGLP1R CreLuc reporter gene assay in 0.5% and 100% plasma; format: cell-based; details: CreLuc reporter gene assay
T1 construct: expressed in transfected cells; host or cells: HEK-293 cells carrying a CRE-luciferase reporter gene
Text: (§1) Example 1: hGLPR/hGIPR/hNPY2R CreLuc Assay in 0.5% and 100% Plasma
(§2) CHO and HEK-293 recombinant cell lines express a luciferase reporter gene under control of the cAMP responsive element (CRE). As a second recombinant protein the GLP-1 and NPY2 receptors were expressed in the reporter gene HEK cells, and the GIP receptor was expressed in the reporter gene CHO cells, respectively. Stimulation of these recombinant cells with an agonist leads to an increase of intracellular cAMP levels. In the presence of cAMP, the transcription factor CRE binding protein (CREB) binds to the CRE and to the CREB binding protein (CBP), which leads to transcription of the luciferase reporter gene. Peptides upon serial-dilution in 100% DMSO were transferred into 384-well assay plates with 5 μl pre-dispensed assay buffer (1×HBSS, 20 mM HEPES, pH7.4 supplemented with 0.5% human plasma) using acoustic dispensing on a Labcyte ECHO. Cryo-preserved transgenic reporter gene cells were thawed in assay buffer. 20 μl (10.000 cells/well) were added to the plate with the peptides and incubated for 4 hours at 37° C. in a humidified incubator. Following incubation, assay plates are equilibrated to room temperature, followed by addition of 25 μl of Bright-GIo™ Luciferase reagent, incubation at room temperature for 10 minutes and analysis of luminescence (Envision Reader). Concentration response evaluation of compounds was performed with 8 concentrations of peptides (covering four decades). EC50 values were calculated by non-linear regression using sigmoid concentration-response with variable slope. The same assays were run in the presence of 100% plasma with no additional buffer constituents.

hGIPR = target: T2, hGIPR (Homo sapiens, UniProt P48546); experiment: hGIPR CreLuc reporter gene assay in 0.5% and 100% plasma; format: cell-based; details: CreLuc reporter gene assay
T2 construct: expressed in transfected cells; host or cells: CHO cells carrying a CRE-luciferase reporter gene
T2 sequence (P48546 22-466): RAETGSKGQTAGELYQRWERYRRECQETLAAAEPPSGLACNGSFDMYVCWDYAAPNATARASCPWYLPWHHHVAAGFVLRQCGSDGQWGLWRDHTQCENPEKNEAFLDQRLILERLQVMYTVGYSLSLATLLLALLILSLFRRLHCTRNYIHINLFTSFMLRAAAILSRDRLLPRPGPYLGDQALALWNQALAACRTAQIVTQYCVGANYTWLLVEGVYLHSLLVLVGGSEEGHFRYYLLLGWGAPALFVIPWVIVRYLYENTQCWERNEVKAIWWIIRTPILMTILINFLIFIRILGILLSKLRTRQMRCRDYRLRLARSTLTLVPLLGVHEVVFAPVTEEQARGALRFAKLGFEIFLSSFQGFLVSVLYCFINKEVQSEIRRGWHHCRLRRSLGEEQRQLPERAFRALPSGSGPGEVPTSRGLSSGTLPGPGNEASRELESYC
Text: as §1, §2

[1] = 0.5% human plasma, read-out: hGLP1R 0.5% hP
[2] = 0.5% human plasma, read-out: hGIPR 0.5% hP
[3] = 100% human plasma, read-out: hGIPR 100% hP
[4] = 100% human plasma, read-out: hGLP1R 100% hP

T1 sequence (P43220 24-463): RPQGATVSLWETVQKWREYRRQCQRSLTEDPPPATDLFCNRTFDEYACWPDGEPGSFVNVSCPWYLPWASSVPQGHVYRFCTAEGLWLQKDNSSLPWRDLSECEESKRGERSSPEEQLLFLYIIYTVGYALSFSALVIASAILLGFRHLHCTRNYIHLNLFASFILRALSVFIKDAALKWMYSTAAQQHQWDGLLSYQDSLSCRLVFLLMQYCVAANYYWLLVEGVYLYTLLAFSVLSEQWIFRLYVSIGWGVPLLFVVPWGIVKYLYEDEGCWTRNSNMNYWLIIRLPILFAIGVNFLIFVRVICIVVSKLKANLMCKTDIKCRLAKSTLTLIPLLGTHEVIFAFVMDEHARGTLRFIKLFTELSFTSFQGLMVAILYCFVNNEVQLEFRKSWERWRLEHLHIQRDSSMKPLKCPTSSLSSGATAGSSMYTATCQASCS

Substance | pEC50 (hGLP1R; [1]) | pEC50 (hGIPR; [2]) | pEC50 (hGIPR; [3]) | pEC50 (hGLP1R; [4])
Y[Aib]EGTFTSDYSI[Aib]LEKQAQ[Aib]AFIEWLIK([AEEA-AEEA-γGlu-γGlu-γGlu-γGlu-C18 diacid])GGPSEGASLRHYYNWLTRQRY-NH2 [Compound 258, Y-Aib-E-G-T-F-T-S-D-Y-S-I-Aib-L-E-K-Q-A-Q-Aib-A-F-I-E-W-L-I-K(1,3)-GGPSEGASLRHYYNWLTRQRY-NH2.C18DA-gGlu-gGlu-gGlu-glu-OEG-OEG(1,2)] | 9.77 | 9.80 | 8.91 | 
H-Y[Aib]EGTFTSDYSI[Aib]LEKQAQ[Aib]AFVQWLIK([AEEA-AEEA-γGlu-γGlu-γGlu-γGlu-C20 diacid])GGPSEGASLRHYYNWLTRQRY-NH2 [Compound 269, Y-Aib-E-G-T-F-T-S-D-Y-S-I-Aib-L-E-K-Q-A-Q-Aib-A-F-V-Q-W-L-I-K(1,3)-GGPSEGASLRHYYNWLTRQRY-NH2.C20DA-gGlu-gGlu-gGlu-gGlu-OEG-OEG(1,2)] | 9.85 | 9.34 | 8.91 | 8.41
H-Y[Aib]EGTFTSDYSI[Aib]LEKQAQ[Aib]AFVEWLIK([εLys-γGlu-γGlu-γGlu-γGlu-γGlu-γGlu-C20 diacid])GGPSSGASLRHYYNW[Tle]TRQRY-NH2 [Compound 137, Y-Aib-E-G-T-F-T-S-D-Y-S-I-Aib-L-E-K-Q-A-Q-Aib-A-F-V-E-W-L-I-K(1,3)-G-G-P-S-S-G-A-S-L-R-H-Y-Y-N-W-Tle-T-R-Q-R-Y-NH2.C20DA-gGlu-gGlu-gGlu-gGlu-gGlu-gGlu-eLys(1,2)] | 9.92 | 9.55 | 8.82 | 
H-Y[Aib]EGTFTSDYSI[Aib]LEKQAQ[Aib]AFVEWLIK([εLys-γGlu-γGlu-γGlu-γGlu-γGlu-γGlu-C20 diacid])GGPSSGASLRHYYNLLTRQRY-NH2 [Compound 195, Y-Aib-E-G-T-F-T-S-D-Y-S-I-Aib-L-E-K-Q-A-Q-Aib-A-F-V-E-W-L-I-K(1,3)-GGPSSGASLRHYYNLLTRQRY-NH2.C20DA-gGlu-gGlu-gGlu-gGlu-gGlu-gGlu-eLys(1,2)] | 9.89 | 9.60 | 8.85 | 
H-Y[Aib]EGTFTSDYSI[Aib]LEKQAQ[Aib]AFVQWLIK([εLys-γGlu-γGlu-γGlu-γGlu-γGlu-γGlu-C20 diacid])GGPESGASLRHYYNWLTRQRY-NH2 [Compound 37, Y-Aib-E-G-T-F-T-S-D-Y-S-I-Aib-L-E-K-Q-A-Q-Aib-A-F-V-Q-W-L-I-K(1,3)-GGPESGASLRHYYNWLTRQRY-NH2.C20DA-gGlu-gGlu-gGlu-gGlu-gGlu-gGlu-eLys(1,2)] | 9.96 | 9.62 | 8.84 | 
H-Y[Aib]EGTFTSDYSI[Aib]LEKQAQ[Aib]AFVEYLIK([εLys-γGlu-γGlu-γGlu-γGlu-γGlu-γGlu-C20 diacid])GGPSSGASLRHYYNWLTRQRY-NH2 [Compound 135, Y-Aib-E-G-T-F-T-S-D-Y-S-I-Aib-L-E-K-Q-A-Q-Aib-A-F-V-E-Y-L-I-K(1,3)-GGPSSGASLRHYYNWLTRQRY-NH2.C20DA-gGlu-gGlu-gGlu-gGlu-gGlu-gGlu-eLys(1,2)] | 9.62 | 9.96 | 8.97 | 
H-Y[Aib]EGTFTSDYSI[Aib]LEEQAQ[Aib]AFVEWLIK([εLys-γGlu-γGlu-γGlu-γGlu-γGlu-C20 diacid])GGPSSGASLRHYYNWLTRQRY-NH2 [Compound 181, Y-Aib-E-G-T-F-T-S-D-Y-S-I-Aib-L-E-E-Q-A-Q-Aib-A-F-V-E-W-L-I-K(1,3)-GGPSSGASLRHYYNWLTRQRY-NH2.C20DA-gGlu-gGlu-gGlu-gGlu-gGlu-eLys(1,2)] | 9.85 | 9.80 | 8.91 | 
H-Y[Aib]EGTFTSDYSI[Aib]LEEQAQ[Aib]AFVQWLIK([εLys-AEEA-γGlu-γGlu-γGlu-γGlu-γGlu-C20 diacid])GGPSSGASLRHYYNWLTRQRY-NH2 [Compound 45, Y-Aib-E-G-T-F-T-S-D-Y-S-I-Aib-L-E-E-Q-A-Q-Aib-A-F-V-Q-W-L-I-K(1,3)-GGPSSGASLRHYYNWLTRQRY-NH2.C20DA-gGlu-gGlu-gGlu-gGlu-gGlu-OEG-eLys(1,2)] | 9.96 | 9.85 | 8.94 | 8.80
I: H-Y[Aib]EGTFTSDYSI[Aib]LEKQAQ[Aib]EFVQWLIKGGPSEGASLRHYYNWLTRQRY-NH2 / II: {C18 diacid}-EEEEEE (amide I:28-II:C) [Compound 179, Y-Aib-E-G-T-F-T-S-D-Y-S-I-Aib-L-E-K-Q-A-Q-Aib-E-F-V-Q-W-L-I-K(1,3)-GGPSEGASLRHYYNWLTRQRY-NH2.C18DA-E-E-E-E-E-E(1,2)] | 9.66 | 9.42 |  | 
H-Y[Aib]EGTFTSDYSI[Aib]LEKQAQ[Aib]AFVEWLIK([εLys-γGlu-γGlu-γGlu-γGlu-γGlu-γGlu-C20 diacid])GGPSSGAS[Aib]RHY[Aib]NR[Aib]TRQRY-NH2 [Compound 4, Y-Aib-E-G-T-F-T-S-D-Y-S-I-Aib-L-E-K-Q-A-Q-Aib-A-F-V-E-W-L-I-K(1,3)-G-G-P-S-S-G-A-S-Aib-R-H-Y-Aib-N-R-Aib-T-R-Q-R-Y-NH2.C20DA-gGlu-gGlu-gGlu-gGlu-gGlu-gGlu-eLys(1,2)] | 10.05 | 9.60 | 8.78 | 
H-Y[Aib]EGTFTSDYSI[Aib]LEKQAQ[Aib]AFVEWLIK([εLys-γGlu-γGlu-γGlu-γGlu-γGlu-γGlu-C20 diacid])GGQSSGASLRHYYNWLTRQRY-NH2 [Compound 123, Y-Aib-E-G-T-F-T-S-D-Y-S-I-Aib-L-E-K-Q-A-Q-Aib-A-F-V-E-W-L-I-K(1,3)-GGQSSGASLRHYYNWLTRQRY-NH2.C20DA-gGlu-gGlu-gGlu-gGlu-gGlu-gGlu-eLys(1,2)] | 9.62 | 9.38 |  | 
H-Y[Aib]EGTFTSDYSI[Aib]LEKQAQ[Aib]EFVEWLIK([AEEA-γGlu-γGlu-γGlu-C18 diacid])GGPSEGASLRHYYNWLTRQRY-NH2 [Compound 274, Y-Aib-E-G-T-F-T-S-D-Y-S-I-Aib-L-E-K-Q-A-Q-Aib-E-F-V-E-W-L-I-K(1,3)-GGPSEGASLRHYYNWLTRQRY-NH2.C18DA-gGlu-gGlu-gGlu-OEG(1,2)] | 9.39 | 9.64 |  | 
H-Y[Aib]EGTFTSDYSI[Aib]LEKQAQ[Aib]AFVEWLIK([AEEA-γGlu-γGlu-γGlu-C18 diacid])GGPSEGASLRHYYNWLTRQRY-NH2 [Compound 300, Y-Aib-E-G-T-F-T-S-D-Y-S-I-Aib-L-E-K-Q-A-Q-Aib-A-F-V-E-W-L-I-K(1,3)-GGPSEGASLRHYYNWLTRQRY-NH2.C18DA-gGlu-gGlu-gGlu-OEG(1,2)] | 9.96 | 9.80 | 8.74 | 
H-Y[Aib]EGTFTSDYSI[Aib]LEKQAQ[Aib]AFVQWLIK([AEEA-AEEA-γGlu-γGlu-γGlu-γGlu-C18 diacid])GGPEEPASLRHYYNWLTRQRY-NH2 [Compound 57, Y-Aib-E-G-T-F-T-S-D-Y-S-I-Aib-L-E-K-Q-A-Q-Aib-A-F-V-Q-W-L-I-K(1,3)-GGPEEPASLRHYYNWLTRQRY-NH2.C18DA-gGlu-gGlu-gGlu-gGlu-OEG-OEG(1,2)] | 9.85 | 9.74 | 8.93 | 
H-Y[Aib]EGTFTSDYSI[Aib]LEKQAQ[Aib]AFVEWLIK([εLys-γGlu-γGlu-γGlu-γGlu-γGlu-γGlu-C20 diacid])GGPRSGASLRHYYNWLTRQRY-NH2 [Compound 168, Y-Aib-E-G-T-F-T-S-D-Y-S-I-Aib-L-E-K-Q-A-Q-Aib-A-F-V-E-W-L-I-K(1,3)-GGPRSGASLRHYYNWLTRQRY-NH2.C20DA-gGlu-gGlu-gGlu-gGlu-gGlu-gGlu-eLys(1,2)] | 9.96 | 9.70 | 8.82 | 
H-Y[Aib]EGTFTSDYSI[Aib]LEKQAQ[Aib]AFVEWLIK([εLys-γGlu-γGlu-γGlu-γGlu-γGlu-γGlu-C20 diacid])GGPSSAVSLRHYYNWLTRQRY-NH2 [Compound 33, Y-Aib-E-G-T-F-T-S-D-Y-S-I-Aib-L-E-K-Q-A-Q-Aib-A-F-V-E-W-L-I-K(1,3)-GGPSSAVSLRHYYNWLTRQRY-NH2.C20DA-gGlu-gGlu-gGlu-gGlu-gGlu-gGlu-eLys(1,2)] | 9.85 | 9.60 |  | 8.50
